{"source": "patent US20180044734A1", "about": "“COMPOSITION FOR DIAGNOSING SKIN DAMAGE CAUSED BY FINE DUST, AND COMPOSITION COMPRISING GALANGIN AS ACTIVE INGREDIENT” (AMOREPACIFIC CORPORATION, priority 2015, published 2018)", "key": {"filaggrin protein": {"test_system": "filaggrin protein", "experiment": "Filaggrin protein expression by blotting with filaggrin antibody", "format": "cell-based, human", "conditions": "galangin 0, 0.5, 1, 2 μM, 24 hours; normalized to β-actin", "method": "The normal human keratinocytes cultured in Example 2 were treated with galangin at different concentrations (0 μM, 0.5 μM, 1 μM and 2 μM). 24 hours later, the culture medium was removed and the cells were washed with 2 mL of phosphate-buffered saline (PBS). After adding cell lysis buffer and vortexing, proteins were quantified from the obtained supernatant. The proteins obtained from the epidermis of normal skin and dry skin were loaded on SDS gel and then blotted using the filaggrin antibody (Covance, France). The quantification result was normalized to that of β-actin (Sigma, USA)."}, "[1]": {"test_system": "filaggrin, keratin 10, keratin 1, keratin 13 and keratin 15 mRNA in normal human keratinocytes", "experiment": "Real-time PCR of gene expression in normal keratinocytes upon treatment with galangin", "format": "cell-based", "conditions": "cells not treated with microdust; galangin 0, 0.5, 1, 2 μM, 24 hours", "method": "After treating the normal human keratinocytes cultured in Example 2 with galangin at different concentrations (0 μM, 0.5 μM, 1 μM and 2 μM), the relative mRNA expression level of filaggrin, keratin 10, keratin 1, keratin 13 and keratin 15 was measured.\n24 hours after the treatment with galangin, the culture medium was removed and the cells were washed with 2 mL of phosphate-buffered saline (PBS). Then, RNA was isolated from the cells using TRIzol reagent (Invitrogen, Carlsbad, Calif., USA).\nSubsequently, the change in gene expression was evaluated by real-time PCR in the same manner as in Example 5. For filaggrin, TaqMan® Hs00856927_g1 was used as the primer."}, "[2]": {"test_system": "microdust-treated normal human keratinocytes", "experiment": "Real-time RT-PCR of microdust-responsive genes in microdust-treated keratinocytes treated with galangin", "format": "cell-based", "conditions": "microdust 2.5 μm 12.5 μg in 1 mL, galangin 0.25-2 μM, 24 hours", "method": "The normal human keratinocytes cultured in Example 2 were treated 12.5 μg of the microdust with a particle diameter of 2.5 μm extracted in Example 1 in 1 mL of a cell culture medium and relative mRNA expression level was measured using the primers described in Tables 5 and 6 (TaqMan® primers, Applied Biosystems).\nThe microdust-treated normal human keratinocytes or the normal human keratinocytes cultured in Example 2 but not treated with microdust were treated with galangin at different concentrations (0.25 μM, 0.5 μM, 1 μM and 2 μM). 24 hours later, the culture medium was removed and the cells were washed with 2 mL of phosphate-buffered saline (PBS). Then, RNA was isolated from the cells using TRIzol reagent (Invitrogen, Carlsbad, Calif., USA). For S100A8, S100A9, CYP1A1, CYP1B1, PI3, IL36G, IL1B, CCL27, IL8, NOX6, XDH, CXCL14, H19, CASP14 and CASP8, expression level was measured after treating with 0.25 μM galangin. The galangin was purchased commercially from Nanjing Chemlin Chemical (CAS No. 548-83-4). The isolated RNA was purified once again with Qiagen RNA kit Qiagen, Valencia, Calif.) and the quality of RNA was determined using Agilent 2100 BioAnalyzer (Agilent Technologies, Santa Clara, Calif., USA). cDNA synthesized from the RNA using SuperScript reverse transcriptase (RT) kit (Invitrogen, Carlsbad, Calif.) was quantitatively analyzed by real time-reverse transcription polymerase chain reaction (Q-RT-PCR) using the primers described in Tables 5 and 6. The change in gene expression pattern was evaluated in real time using TaqMan gene expression assay kit (Applied Biosystems, Foster City, Calif.). The Q-RT-PCR and real-time PCR were conducted in accordance with the standard protocols of Life Technologies, specifically, 95° C. for 20 seconds followed by 40 cycles of 95° C. for 3 seconds and 60° C. for 30 seconds."}, "[3]": {"test_system": "normal human keratinocytes", "experiment": "Differentiation of keratinocytes under optical microscope", "format": "cell-based", "conditions": "cells not treated with microdust; galangin 0, 1, 2 μM, 24 hours", "method": "The normal human keratinocytes cultured in Example 2 were treated with galangin at different concentrations (0 μM, 1 μM and 2 μM). 24 hours later, the culture medium was removed and the degree of differentiation of the keratinocytes was observed under an optical microscope (Olympus IX71, x40 and x200)."}}, "data": [{"smiles": "O=c1c(O)c(-c2ccccc2)oc2cc(O)cc(O)c12", "note": "[galangin]", "values": [{"measurement": "expression of filaggrin protein", "setting": "filaggrin protein", "value": "increased with increasing galangin concentration"}, {"measurement": "relative mRNA expression level of filaggrin", "setting": "[1]", "value": "increased expression with increasing galangin concentration"}, {"measurement": "relative mRNA expression level of keratin 1", "setting": "[1]", "value": "increased expression with increasing galangin concentration"}, {"measurement": "relative mRNA expression level of keratin 10", "setting": "[1]", "value": "increased expression with increasing galangin concentration"}, {"measurement": "relative mRNA expression level of keratin 13", "setting": "[1]", "value": "increased expression with increasing galangin concentration"}, {"measurement": "relative mRNA expression level of keratin 15", "setting": "[1]", "value": "increased expression with increasing galangin concentration"}, {"measurement": "expression of genes whose expression is increased in skin cells stimulated by microdust", "setting": "[2]; FIGS. 2a-2k", "value": "decreased expression"}, {"measurement": "expression of genes increased or decreased in skin cells stimulated by microdust", "setting": "[2]; FIGS. 2 and 3", "value": "returned to the normal level"}, {"measurement": "expression of genes whose expression is decreased in skin cells stimulated by microdust", "setting": "[2]; FIGS. 3a-3k", "value": "increased expression"}, {"measurement": "degree of differentiation of the keratinocytes", "setting": "[3]", "value": "active differentiation with increasing galangin concentration"}]}]}
